Measured values published in patent US12162820B2 (TAIWANJ PHARMACEUTICALS CO., LTD., priority 2019, dated 2024).

How the values were obtained:
Type in all cases: biochemical
[1] = target: T1, HDAC1 (Homo sapiens, UniProt Q13547); experiment: HDAC Inhibition Screening Assay (FLUOR DE LYS Fluorimetric Drug Discovery Kit), HDAC1; settings: for inhibition at 2 µM: 2 μM compound; for inhibition at 10 µM: 10 μM compound; for inhibition at 50 µM: 50 μM compound
T1 construct: purchased Enzo Life Sciences
Method in brief: (§1)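 Compounds at 2 μM, 10 μM and 50 μM were each tested against HDAC1, HDAC2 and HDAC3 using a two-step fluorimetric assay. Results are given as percent of basal control after baseline subtraction.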

[2] = target: T2, ATX (autotaxin) (Homo sapiens, UniProt Q13822); experiment: Autotaxin Inhibition Screening Assay (choline release from LPC, LPC-CR); settings: for inhibition at 4 µM: 4 μM compound; for inhibition at 20 µM: 20 μM compound; for inhibition at 50 µM: 50 μM compound
T2 construct: purchased Cayman 10803
Method in brief: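 Released choline from 100 μM 14:0 LPC, detected via choline oxidase–HRP–homovanillic acid fluorescence (320/450 nm) kinetically over 90 min, reports activity of 20 ng ATX. Buffer: 50 mM Tris pH 8.0, 50 mM CaCl2, 0.01% Triton X-100; test compounds 4, 20, 50 μM; percent inhibition from blank-subtracted slopes relative to vehicle.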

[3] = target: T3, HDAC3 (Homo sapiens, UniProt O15379); experiment: HDAC Inhibition Screening Assay (FLUOR DE LYS Fluorimetric Drug Discovery Kit), HDAC3; settings: for inhibition at 2 µM: 2 μM compound; for inhibition at 10 µM: 10 μM compound; for inhibition at 50 µM: 50 μM compound
T3 construct: purchased Enzo Life Sciences
Method in brief: as §1

[4] = target: T4, HDAC2 (Homo sapiens, UniProt Q92769); experiment: HDAC Inhibition Screening Assay (FLUOR DE LYS Fluorimetric Drug Discovery Kit), HDAC2; settings: for inhibition at 2 µM: 2 μM compound; for inhibition at 10 µM: 10 μM compound; for inhibition at 50 µM: 50 μM compound
T4 construct: purchased Enzo Life Sciences
Method in brief: as §1

T1 sequence (Q13547 whole entry): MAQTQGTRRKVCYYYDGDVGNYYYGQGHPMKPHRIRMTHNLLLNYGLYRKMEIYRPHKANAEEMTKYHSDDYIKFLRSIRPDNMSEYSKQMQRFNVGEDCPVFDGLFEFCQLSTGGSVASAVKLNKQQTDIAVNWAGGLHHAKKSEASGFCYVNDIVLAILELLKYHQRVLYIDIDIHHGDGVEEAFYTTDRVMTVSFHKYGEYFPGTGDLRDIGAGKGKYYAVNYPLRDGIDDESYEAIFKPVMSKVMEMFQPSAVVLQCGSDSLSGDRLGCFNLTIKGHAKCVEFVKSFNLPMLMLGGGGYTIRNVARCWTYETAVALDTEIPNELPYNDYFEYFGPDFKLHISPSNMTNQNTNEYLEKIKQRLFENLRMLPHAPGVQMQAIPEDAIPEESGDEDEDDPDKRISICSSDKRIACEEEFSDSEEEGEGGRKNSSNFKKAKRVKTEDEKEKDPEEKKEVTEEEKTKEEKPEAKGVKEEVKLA
T4 sequence (Q92769 whole entry): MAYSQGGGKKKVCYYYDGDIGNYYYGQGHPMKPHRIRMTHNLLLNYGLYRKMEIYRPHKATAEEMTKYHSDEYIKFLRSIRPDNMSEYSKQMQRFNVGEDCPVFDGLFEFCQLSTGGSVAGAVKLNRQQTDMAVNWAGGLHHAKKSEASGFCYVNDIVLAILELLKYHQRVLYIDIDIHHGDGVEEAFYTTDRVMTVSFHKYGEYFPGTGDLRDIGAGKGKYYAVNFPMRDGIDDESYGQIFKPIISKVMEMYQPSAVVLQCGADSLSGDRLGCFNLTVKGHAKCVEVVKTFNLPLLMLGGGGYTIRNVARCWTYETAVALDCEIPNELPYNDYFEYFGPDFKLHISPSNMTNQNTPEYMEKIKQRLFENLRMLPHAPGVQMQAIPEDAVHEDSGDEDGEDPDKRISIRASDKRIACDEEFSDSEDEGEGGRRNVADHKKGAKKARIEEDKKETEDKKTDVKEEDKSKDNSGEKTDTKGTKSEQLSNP
T3 sequence (O15379 whole entry): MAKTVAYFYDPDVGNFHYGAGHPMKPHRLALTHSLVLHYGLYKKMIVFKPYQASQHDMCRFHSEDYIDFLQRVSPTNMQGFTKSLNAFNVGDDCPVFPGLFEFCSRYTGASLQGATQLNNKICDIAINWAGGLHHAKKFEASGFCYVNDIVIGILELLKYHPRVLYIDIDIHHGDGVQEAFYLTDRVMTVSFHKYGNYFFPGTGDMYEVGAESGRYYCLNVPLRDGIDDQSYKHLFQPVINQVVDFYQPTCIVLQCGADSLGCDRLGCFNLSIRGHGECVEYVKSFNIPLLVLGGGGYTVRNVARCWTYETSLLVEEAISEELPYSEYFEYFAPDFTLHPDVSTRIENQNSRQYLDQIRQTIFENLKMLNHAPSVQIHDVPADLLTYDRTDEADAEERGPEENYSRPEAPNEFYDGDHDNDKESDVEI
T3 sequence (O75376 395-489 partner limits assumed): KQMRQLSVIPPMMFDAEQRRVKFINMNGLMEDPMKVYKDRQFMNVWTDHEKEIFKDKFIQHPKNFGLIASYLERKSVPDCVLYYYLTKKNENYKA

Structure (SMILES) | inhibition at 2 µM [1] | inhibition at 10 µM [1] | inhibition at 50 µM [1] | inhibition at 4 µM [2] | inhibition at 20 µM [2] | inhibition at 50 µM [2] | inhibition at 2 µM [3] | inhibition at 10 µM [3] | inhibition at 50 µM [3] | inhibition at 2 µM [4] | inhibition at 10 µM [4] | inhibition at 50 µM [4]
O=C(/C=C/c1ccc2c(c1)CCC2OCc1cc(C(F)(F)F)cc(C(F)(F)F)c1)NO (stereo not drawn) [Compound 34, (E)-3-(1-((3,5-bis(trifluoromethyl)benzyl)oxy)-2,3-dihydro-1H-inden-5-yl)-N-hydroxyacrylamide] | < 50% | > 80% | > 80% | < 50% | < 50% | < 50% | < 50% | 50 to 80% | > 80% | 50 to 80% | > 80% | > 80%
Nc1cc(F)ccc1NC(=O)CCCCCCC(=O)Nc1ccc2c(c1)CCC(Cc1cc(C(F)(F)F)cc(C(F)(F)F)c1)C2=O (stereo not drawn) [Compound 9, N1-(2-amino-4-fluorophenyl)-N8-(6-(3,5-bis(trifluoromethyl)benzyl)-5-oxo-5,6,7,8-tetrahydronaphthalen-2-yl)octanediamide] | < 50% | < 50% | < 50% | < 50% | < 50% | < 50% | < 50% | < 50% | < 50% | < 50% | < 50% | < 50%
COc1ccc(C(=O)NC2CCc3cc(/C=C/C(=O)NO)ccc32)cc1 (stereo not drawn) [Compound 25, (E)-N-(5-(3-(hydroxyamino)-3-oxoprop-1-en-1-yl)-2,3-dihydro-1H-inden-1-yl)-4-methoxybenz amide] | > 80% | > 80% | > 80% | < 50% | < 50% | < 50% | > 80% | > 80% | > 80% | > 80% | > 80% | > 80%
O=C(/C=C/c1ccc(COc2ccc3c(c2)CCCC3=O)cc1)NO [Compound 70, (E)-N-hydroxy-3-(4-(((5-oxo-5,6,7,8-tetrahydronaphthalen-2-yl)oxy)-methyl)phenyl)acrylamide] | 50 to 80% | > 80% | > 80% | < 50% | 50 to 80% | 50 to 80% | > 80% | > 80% | > 80% | > 80% | > 80% | > 80%
Cc1ccc(S(=O)(=O)NC2CCc3cc(/C=C/C(=O)NO)ccc32)cc1 (stereo not drawn) [Compound 16, (E)-N-hydroxy-3-(1-((4-methylphenyl)sulfonamido)-2,3-dihydro-1H-inden-5-yl)acrylamide] | > 80% | > 80% | > 80% | < 50% | < 50% | < 50% | > 80% | > 80% | > 80% | > 80% | > 80% | > 80%
O=C(/C=C/c1ccc2c(c1)CCC2NCc1cc(C(F)(F)F)cc(C(F)(F)F)c1)NO (stereo not drawn) [Compound 33, (E)-3-(1-((3,5-bis(trifluoromethyl)benzyl)amino)-2,3-dihydro-1H-inden-5-yl)-N-hydroxyacrylamide] | 50 to 80% | > 80% | > 80% | < 50% | < 50% | < 50% | 50 to 80% | > 80% | > 80% | 50 to 80% | > 80% | > 80%
O=C(/C=C/c1ccc2c(c1)CCC2NCCc1c[nH]c2ccccc12)NO (stereo not drawn) [Compound 58, (E)-3-(1-((2-(1H-indol-3-yl)ethyl)amino)-2,3-dihydro-1H-inden-5-yl)-N-hydroxyacrylamide] | > 80% | > 80% | > 80% | < 50% | < 50% | 50 to 80% | > 80% | > 80% | > 80% | > 80% | > 80% | > 80%
COc1ccc(CCNC2CCc3cc(/C=C/C(=O)Nc4ccc(F)cc4N)ccc32)cc1 (stereo not drawn) [Compound 51, (E)-N-(2-amino-4-fluorophenyl)-3-(1-((4-methoxyphenethyl)amino)-2,3-dihydro-1H-inden-5-yl) acrylamide] | < 50% | 50 to 80% | > 80% | < 50% | < 50% | < 50% | > 80% | > 80% | > 80% | 50 to 80% | > 80% | > 80%
Nc1cc(F)ccc1NC(=O)/C=C/c1ccc2c(c1)CCC2NCCC(=O)Nc1cc(C(F)(F)F)cc(C(F)(F)F)c1 (stereo not drawn) [Compound 49, (E)-N-(2-amino-4-fluorophenyl)-3-(1-((3-((3,5-bis(trifluoromethyl)phenyl)amino)-3-oxopropyl)amino)-2,3-dihydro-1H-inden-5-yl)acrylamide] | < 50% | < 50% | < 50% | < 50% | < 50% | < 50% | < 50% | < 50% | 50 to 80% | < 50% | < 50% | 50 to 80%
COc1ccc2c(c1)CCCC2NC(=O)CCCCCCC(=O)Nc1ccc(F)cc1N (stereo not drawn) [Compound 47, N1-(2-amino-4-fluorophenyl)-N8-(6-methoxy-1,2,3,4-tetrahydronaphthalen-1-yl)octanediamide] | < 50% | < 50% | < 50% | < 50% | < 50% | < 50% | 50 to 80% | 50 to 80% | > 80% | < 50% | 50 to 80% | 50 to 80%
CCN(CC)c1ccc(C(=O)NC2CCc3cc(/C=C/C(=O)Nc4ccc(F)cc4N)ccc32)cc1 (stereo not drawn) [Compound 27] | < 50% | < 50% | < 50% | < 50% | < 50% | < 50% | < 50% | < 50% | < 50% | < 50% | < 50% | < 50%
Cc1[nH]c2ccccc2c1CCNC1CCc2cc(/C=C/C(=O)Nc3ccc(F)cc3N)ccc21 (stereo not drawn) [Compound 59, (E)-N-(2-amino-4-fluorophenyl)-3-(1-((2-(2-methyl-1H-indol-3-yl)ethyl)amino)-2,3-dihydro-1H-inden-5-yl)acrylamide] | 50 to 80% | > 80% | > 80% | < 50% | < 50% | < 50% | > 80% | > 80% | > 80% | > 80% | > 80% | > 80%
O=C(CCCCCCC(=O)Nc1ccc2c(c1)CCCC2O)NO (stereo not drawn) [Compound 2, N^1-hydroxy-N^8-(5-hydroxy-5,6,7,8-tetrahydronaphthalen-2-yl)octanediamide] | > 80% | > 80% | > 80% | < 50% | < 50% | < 50% | > 80% | > 80% | > 80% | > 80% | > 80% | > 80%
O=C(CCCCCN(CC(=O)NC1CCc2ccccc21)CC(=O)NC1CCc2ccccc21)NO (stereo not drawn) [Compound 45, 2,2′-((6-(hydroxyamino)-6-oxohexyl)azanediyl)bis(N-(2,3-dihydro-1H-inden-1-yl)acetamide)] | > 80% | > 80% | > 80% | < 50% | < 50% | < 50% | > 80% | > 80% | > 80% | > 80% | > 80% | > 80%
CCN(CC)c1ccc(C(=O)NC2CCc3cc(/C=C/C(=O)NO)ccc32)cc1 (stereo not drawn) [Compound 28, (E)-4-(diethylamino)-N-(5-(3-(hydroxyamino)-3-oxoprop-1-en-1-yl)-2,3-dihydro-1H-inden-1-yl)benzamide] | > 80% | > 80% | > 80% | < 50% | < 50% | < 50% | > 80% | > 80% | > 80% | > 80% | > 80% | > 80%
